From patent publication US9409880B2, “Modulators of TLR3/dsRNA complex and uses thereof” (The Regents of the University of Colorado, a body corporate, priority 2011, dated 2016) come the findings set out here.

Broadly, the IC50 is the concentration needed to halve the response being measured. A low value points to greater potency.

In the first experiment the target is T1, TLR3 (Mus musculus, UniProt Q99MB1).
T1 construct: endogenous in cells; host or cells: RAW 264.7
T1 sequence (Q99MB1 26-905): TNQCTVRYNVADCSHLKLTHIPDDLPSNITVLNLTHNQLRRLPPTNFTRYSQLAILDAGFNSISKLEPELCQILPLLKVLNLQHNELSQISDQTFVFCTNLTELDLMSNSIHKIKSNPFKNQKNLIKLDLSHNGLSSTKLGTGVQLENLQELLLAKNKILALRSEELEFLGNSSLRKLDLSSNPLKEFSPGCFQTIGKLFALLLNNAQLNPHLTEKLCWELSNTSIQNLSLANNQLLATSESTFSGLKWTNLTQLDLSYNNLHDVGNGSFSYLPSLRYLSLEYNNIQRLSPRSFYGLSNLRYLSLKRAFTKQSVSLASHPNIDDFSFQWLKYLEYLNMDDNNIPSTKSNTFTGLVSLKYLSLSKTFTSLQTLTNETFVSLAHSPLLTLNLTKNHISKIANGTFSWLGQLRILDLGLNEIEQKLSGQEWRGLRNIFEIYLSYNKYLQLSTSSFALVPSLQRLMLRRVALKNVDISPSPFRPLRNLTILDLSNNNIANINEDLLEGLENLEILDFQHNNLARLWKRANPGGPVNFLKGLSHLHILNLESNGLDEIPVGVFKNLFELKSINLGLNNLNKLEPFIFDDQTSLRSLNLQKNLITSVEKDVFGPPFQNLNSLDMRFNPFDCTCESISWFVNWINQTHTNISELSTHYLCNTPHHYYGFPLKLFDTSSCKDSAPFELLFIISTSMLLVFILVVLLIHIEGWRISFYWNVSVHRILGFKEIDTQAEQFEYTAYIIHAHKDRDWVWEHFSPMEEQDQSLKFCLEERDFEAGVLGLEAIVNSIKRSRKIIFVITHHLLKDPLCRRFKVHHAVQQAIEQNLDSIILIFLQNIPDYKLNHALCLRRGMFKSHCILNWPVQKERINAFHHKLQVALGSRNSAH
Put plainly: In vitro TLR3 inhibition assay: Poly IC-induced NO production in RAW 264.7 cells. It is filed as cell-based. The following applies: 6a vs 4a. From the text:
The initial hits (Figure A) were first evaluated using the present inventors' previously established high-throughput cell assay of TLR3 activation. See, for example, ACS Med. Chem. Lett. 2010, 1, 194 and Bioorg. Med. Chem. Lett., 2010, 20, 5411. Poly IC (Polyriboinosinic:polyribocytidylic acid) has been reported to selectively activate TLR3 signaling, resulting in the activation of nitric oxide synthase and the production nitric oxide (NO) in RAW 264.7 macrophage cells. The NO level was monitored as an indicator of Poly IC-induced TLR3 activation to evaluate the drug's inhibitory activity.
RAW 264.7 (Mouse leukaemic monocyte macrophage cell line) cells were grown in RPMI 1640 medium, supplemented with 10% FBS, penicillin (100 U/mL) and streptomycin ([…]). RAW cells were then planted in 96-well plates at 100,000 cells per well and grown for 24 h in the media descried previously at 37° C. in a 5% CO2 humidified incubator. After 24 h, non-adherent cells and media were removed and replaced with fresh RPMI 1640 medium (only RPMI). The adherent macrophages were treated with high molecular weight polyinosine-polycytidylic acid (Poly IC) (10 μg/mL) (Invivogen), an agonist of TLR3, and then added different concentrates of potential inhibitor. Two rows were only treated with Poly IC as an control. Plates were then incubated for an additional 24 h. Following incubation 100 μL of media was removed and added to flat black 96-well microfluor plates (Thermo Scientific, MA, USA). To each well, 10 μL of 2,3-diaminonaphthalene (0.05 mg/mL in 0.62 M aqueous HCl solution) was added and incubated for 15 min in the dark. The reaction was quenched by addition of 5 μL of a 3 M aqueous NaOH solution and the plate was read on Beckman Coulter DTX880 reader (Beckman Coulter, Calif., USA) with excitation at 365 nm and emission at 450 nm. The nitrite (a stable metabolite of nitric oxide) concentration was determined from a nitrite standard curve. The inhibition rate (%) of NO release was determined using the following formula: Inhibition (%)=[Poly IC(OD450)−Compounds (OD450)]/[Poly IC(OD450)−Control (OD450)]×100. The IC50 values for both inhibition and cytotoxicity were determined graphically using software Origin v7.5.
On to `COc1ccc2c(Cl)c(C(=O)N[C@H](Cc3ccccc3)C(=O)O)sc2c1` [Compound 6a, (R)-2-(3-chloro-6-methoxybenzo[b]thiophene-2-carboxamido)-3-phenylpropanoic acid], for which the decrease in potency is on record as 10 fold.

The experiment is the same for the next values; noted with them: whole cell inhibitory activity; Poly IC-induced NO, RAW 264.7; average ± SD, at least three independent tests.
For the compound `O=C(N[C@@H](Cc1ccccc1)C(=O)O)c1cc2ccccc2s1` [Compound 1b, (S)-2-(benzo[b]thiophene-2-carboxamido)-3-phenylpropanoic acid], the half-maximal inhibitory concentration (IC50) was above 155 µM.
Turning to `Cc1ccc2c(Cl)c(C(=O)N[C@H](Cc3ccccc3)C(=O)O)sc2c1` [Compound 2a, (R)-2-(3-chloro-6-methylbenzo[b]thiophene-2-carboxamido)-3-phenylpropanoic acid], it took 11.8 ± 1.3 µM to reach half-maximal inhibition (IC50).
Compound `Cc1ccc2c(Cl)c(C(=O)N[C@@H](Cc3ccccc3)C(=O)O)sc2c1` [Compound 2b, (S)-2-(3-chloro-6-methylbenzo[b]thiophene-2-carboxamido)-3-phenylpropanoic acid] yielded an IC50 of 31.7 ± 0.7 µM. Against the preceding compound, the IC50 is about 2.7-fold higher.
The same measure, in the same setting: to `O=C(N[C@H](Cc1ccccc1)C(=O)O)c1sc2cc(Cl)ccc2c1Cl` [Compound 3a, (R)-2-(3,6-dichlorobenzo[b]thiophene-2-carboxamido)-3-phenylpropanoic acid] belongs 5.6 ± 0.32 µM; to `O=C(N[C@@H](Cc1ccccc1)C(=O)O)c1sc2cc(Cl)ccc2c1Cl` [Compound 3b, (S)-2-(3,6-dichlorobenzo[b]thiophene-2-carboxamido)-3-phenylpropanoic acid], 11.8 ± 2.5 µM; to `O=C(N[C@@H](Cc1ccccc1)C(=O)O)c1sc2cc(F)ccc2c1Cl` [Compound 4b, (S)-2-(3-chloro-6-fluorobenzo[b]thiophene-2-carboxamido)-3-phenylpropanoic acid], 21.9 ± 0.7 µM.
Still for that read-out and setting: the same measure for `O=C(N[C@H](Cc1ccccc1)C(=O)O)c1sc2cc(C(F)(F)F)ccc2c1Cl` [Compound 5a, (R)-2-(3-chloro-6-(trifluoromethyl)benzo[b]thiophene-2-carboxamido)-3-phenylpropanoic acid]: 6.28 ± 1.05 µM.
Turning to `O=C(N[C@@H](Cc1ccccc1)C(=O)O)c1sc2cc(C(F)(F)F)ccc2c1Cl` [Compound 5b, (S)-2-(3-chloro-6-(trifluoromethyl)benzo[b]thiophene-2-carboxamido)-3-phenylpropanoic acid], it took 19.8 ± 3.6 µM to reach half-maximal inhibition (IC50).
Same read-out and setting: to `COc1ccc2c(Cl)c(C(=O)N[C@H](Cc3ccccc3)C(=O)O)sc2c1` [Compound 6a, (R)-2-(3-chloro-6-methoxybenzo[b]thiophene-2-carboxamido)-3-phenylpropanoic acid] belongs 36.7 ± 3.9 µM.
Same read-out and setting: to `COc1ccc2c(Cl)c(C(=O)N[C@@H](Cc3ccccc3)C(=O)O)sc2c1` [Compound 6b, (S)-2-(3-chloro-6-methoxybenzo[b]thiophene-2-carboxamido)-3-phenylpropanoic acid] belongs above 100 µM.
Same read-out and setting: to `O=C(N[C@H](Cc1ccc(O)cc1)C(=O)O)c1sc2cc(F)ccc2c1Cl` [Compound 7a, (R)-2-(3-chloro-6-fluorobenzo[b]thiophene-2-carboxamido)-3-(4-hydroxyphenyl)propanoic acid] belongs 56.4 ± 5.2 µM; to `O=C(N[C@@H](Cc1ccc(O)cc1)C(=O)O)c1sc2cc(F)ccc2c1Cl` [Compound 7b, (S)-2-(3-chloro-6-fluorobenzo[b]thiophene-2-carboxamido)-3-(4-hydroxyphenyl)propanoic acid], 84.7 ± 2.4 µM; to `O=C(N[C@H](Cc1ccccc1)C(=O)O)c1sc2cc(F)c(F)cc2c1Cl` [Compound 8a, (R)-2-(3-chloro-5,6-difluorobenzo[b]thiophene-2-carboxamido)-3-phenylpropanoic acid], 70.7 ± 2.1 µM.
In turn, `O=C(N[C@@H](Cc1ccccc1)C(=O)O)c1sc2cc(F)c(F)cc2c1Cl` [Compound 8b, (S)-2-(3-chloro-5,6-difluorobenzo[b]thiophene-2-carboxamido)-3-phenylpropanoic acid] registered an IC50 of 79.5 ± 3.4 µM.
For the compound `O=C(N[C@H](Cc1ccc(O)cc1)C(=O)O)c1cc2ccccc2s1` [Compound 9a, (R)-2-(benzo[b]thiophene-2-carboxamido)-3-(4-hydroxyphenyl)propanoic acid], the IC50 is above 100 µM.
`O=C(N[C@@H](Cc1ccc(O)cc1)C(=O)O)c1cc2ccccc2s1` [Compound 9b] had an IC50 above 100 µM.
